Experimental data published in PMC12469971 (Gels, 2025).
In brackets after ≈: the same amount, converted by molar mass. Several values for one entry are separate records, joined by “and”; a condition that tells them apart may be missing. Identical values can stand only once. Like-named read-outs stand apart in the source and are kept apart here.

Legend:
[1] = Antioxidant activity, DPPH assay; assay type: biochemical; conditions: not UV-irradiated; curcumin concentration; 40 min
Description: The samples were vortexed for 20 to 30 s, and their absorbance was measured at 517 nm after 40 min using a UV spectrophotometer (BOECO S-22) (BOECO, Hamburg, Germany). Ethanol is used for calibration, and ascorbic acid serves as a standard for antioxidant activity.
The percentage of DPPH inhibition for each sample type was determined, and the IC50 values were calculated based on the concentration (μg/mL) vs. inhibition plots. Ascorbic acid was used as a standard. All measurements were performed in triplicate at room temperature.

[2] = pH stability of free and encapsulated curcumin; assay type: physicochemical; parameters: degradation rate constant k: unit: h⁻¹; conditions: dark; for half-life at 4 μg/mL: read-out: degradation half-life t1/2 (converted)
Description: The samples were maintained at 37 °C in the dark, in closed containers, for 8 h. […] The particles were maintained at 37 °C in an oven (AG-System, F.lli Galli G. & P., Milano, Italia) protected from light and air exposure. […] The amount of curcumin found in the samples was then determined using a Nanodrop spectrophotometer. […] The half-life (t1/2) for first-order reactions depends solely on the degradation rate constant, k, and is independent of the substance’s initial concentration. All measurements were conducted in triplicate, and the results are reported as average values ± standard deviation (STDev).

[3] = test system: V79-4 normal cell line; experiment: Cell apoptosis by Annexin V-FITC/PI flow cytometry; assay type: cell-based, Cricetulus griseus; conditions: V79-4, 7.5 µg/mL, 24 h
Source text: (§1) The possible mechanism of action for the analyzed nanoparticles was established by determining the process of cellular apoptosis using flow cytometry, a method that enabled the assessment of the percentage of live, dead, pre-apoptotic, and apoptotic cells (Table S2 and Figure 8).
(§2) Apoptosis, also known as programmed cell death, is a natural process for eliminating cells. It involves the formation of membrane vesicles, chromatin condensation, and DNA fragmentation. Annexin V, which is a calcium-dependent protein, binds with high affinity to phosphatidylserine (PS), which moves from the inner to the outer membrane during apoptosis. When Annexin V is fluorescently labeled, this PS exposure can be detected using flow cytometry. The presence of PS signals macrophages to clear the cell through phagocytosis. […] In late apoptotic and necrotic cells, both the plasma and nuclear membrane integrity is compromised, enabling propidium iodide to penetrate the membrane, bind to nucleic acids, and produce red fluorescence. Cells were cultured in 24-well plates at a density of 50,000 cells per well to create a monolayer. After 24 h of incubation, test compounds (free drugs or nanoparticle formulations) were applied at a concentration of 7.5 µg/mL and incubated for an additional 24 h. Flow cytometry was used to process and analyze the cells according to the manufacturer’s instructions for the assay kit. For interpretation, cells that were negative for both propidium iodide (PI) and Annexin V were classified as viable; cells that were Annexin V-positive and PI-negative were considered apoptotic; and cells that were positive for both markers were identified as necrotic.

[4] = PAMPA-BBB permeability assay (kit PMBBB-096); assay type: in vitro ADME; conditions: for Papp at 18 h, 500 μM: PAMPA, 37 °C
Description: The in vitro parallel artificial permeability assay (PAMPA, Kit PMBBB-096 from BioAssay Systems (Hayward, CA, USA)) was employed to evaluate whether nanoparticles can cross the BBB. […] As a negative standard, we used the low-permeability (LP) and high-permeability (HP) standards from the PAMPA-BBB kit from Bioassay.
Specifically, the PMBBB-096 (BioAssay Systems Hayward, CA, USA) kit supports in vitro assessment of BBB permeability. […] Three hundred microliters (300 μL) of 0.01 M PBS with 5% DMSO was added to the acceptor plate (96-well PTFE acceptor plates) (BioAssay Systems Hayward, CA, USA). The donor plate (96-well polycarbonate filter-based donor plates, pore size 0.45 μm) was coated with 5 μL of lyophilized brain lipid extract solution, made by dissolving the brain extract in 400 μL of dodecane. […] In parallel, 200 μM equilibrium standards were prepared in separate Eppendorf tubes for each test and control sample. In Eppendorf tubes, 80 μL of test solutions or the control standard at a concentration of 500 μM were mixed with 120 μL of PBS solution containing 5% DMSO. The blank was prepared using the PBS solution with 5% DMSO. The next day, equilibrium standards and the blank solution were utilized, and the acceptor compartment’s solution was analyzed. […] Based on the absorbance value determined for each respective test sample and the permeability control standard, the permeability rate (Pe) was calculated using the following Equation (4):(4) Pe=C×−ln1−ODA/ODE,cm/s where ODA represents the absorbance of the acceptor plate solution minus the absorbance of the blank, and ODE indicates the absorbance of the equilibrium standard minus the absorbance of the blank.

[5] = Light stability of free and encapsulated curcumin (natural light and air); assay type: physicochemical
Description: The analyzed HSA nanoparticles were weighed and then exposed to air and natural light for 30 days in Petri dishes. […] All determinations were performed in triplicate, and the results are presented as mean values ± standard deviation (STDev).

[6] = test system: C6 tumor cell line; experiment: Cell apoptosis by Annexin V-FITC/PI flow cytometry; assay type: cell-based, Rattus norvegicus; conditions: C6, 7.5 µg/mL, 24 h
Source text: as §1, §2

[7] = test system: normal V79-4 cells; experiment: Cytotoxicity, MTT assay; conditions: for Percentage of dead cells per V79-4 cell line (cytotoxic effect): 48 h; for IC50: Cricetulus griseus, V79-4, 48 h
Description: (§3) This IC50 value was derived from a graph plotting the percentage of dead cells against the drug concentration in the samples. […] A lower IC50 value indicates the higher cytotoxicity of the samples.
(§4) In both cases, the growth media were supplemented with 10% fetal bovine serum (SFB, Euroclone S.p.A., Milan, Italy) and 1% antibiotic solution, containing penicillin at […] and streptomycin at 100 IU/mL (Capricorn Scientific GmbH, Ebsdorfergrund, Germany), maintained at a temperature of 37 °C in a humidified environment with 5% CO2 [130]. Products tested: Albumin nanoparticles obtained through self-assembly and crosslinking with OG were evaluated.
(§5) This method relies on the conversion of MTT, a water-soluble yellow compound, into dark blue, water-insoluble formazan by the mitochondrial dehydrogenases of living cells. […] After treatment, the medium was removed, the cells were washed with phosphate-buffered saline (PBS), and then incubated with 100 μL of fresh medium and 10 μL of MTT (5 mg/mL) for 3 h at 37 °C. The resulting formazan crystals were solubilized with 50 μL of DMSO, and absorbance was measured at 570 nm using the EZ Read 400 reader (Biochrom, Cambridge, UK). The intensity of the resulting color directly correlates with the number of viable cells, and viability was calculated using Equation (6):Cell viability (%) = Esample/Econtrol × 100, where E = extinction(6)

[8] = test system: C6 tumor cells; experiment: Cytotoxicity, MTT assay; conditions: for viability at 1.875 µg/mL / viability at 3.75 µg/mL / viability at 7.5 µg/mL / viability at 15 µg/mL / IC50: Rattus norvegicus; for viability at 1.875 µg/mL / viability at 3.75 µg/mL / viability at 7.5 µg/mL / viability at 15 µg/mL / Percentage of dead cells per C6 cell line (cytotoxic effect): 48 h; for viability at 1.875 µg/mL: read-out: Cell viability (%) C6, 1.875 μg/mL (nanoparticles or free drug), 48 h; for viability at 3.75 µg/mL: read-out: Cell viability (%) C6, 3.75 μg/mL, 48 h; for viability at 7.5 µg/mL: read-out: Cell viability (%) C6, 7.5 μg/mL, 48 h; for viability at 15 µg/mL: read-out: Cell viability (%) C6, 15 μg/mL, 48 h; for IC50: C6, 48 h
Description: as §3, §4, §5

[9] = Cytotoxicity, MTT assay; conditions: Chinese hamster, V79-4 lung fibroblasts (ATCC CCL-93), 48 h; for viability at 48 h, 1.875 μg/mL: Cell viability (%) V79-4, 1.875 μg/mL (nanoparticles or free drug); for viability at 48 h, 3.75 μg/mL: Cell viability (%) V79-4, 3.75 μg/mL; for viability at 48 h, 7.5 μg/mL: Cell viability (%) V79-4, 7.5 μg/mL; for viability at 48 h, 15 μg/mL: Cell viability (%) V79-4, 15 μg/mL
Description: as §3, §4, §5

[10] = parameters: method as in PMID 32494134, PMID 35684445, PMID 25751368; conditions: rapidly hydrolyzed in physiological conditions; cited from earlier work
[11] = read-out: IC50 μg/mL for TMZ/CURC on the V79-4 Cell Line
[12] = read-out: IC50 μg/mL for TMZ/CURC on the C6 Cell Line

O=C1O[C@H]([C@@H](O)CO)C(O)=C1O [Ascorbic acid, ascorbic acid]
IC50 (DPPH) [1]: 4.3 µg/mL (≈ 24.4 µM)

COc1cc(/C=C/C(=O)CC(=O)/C=C/c2ccc(O)c(OC)c2)ccc1O [Curcumin, curcumin]
half-life at 4 μg/mL ([2]; buffer solution (pH 3), pH 3, 37 °C): 7.7 h | half-life at 4 μg/mL ([2]; buffer solution (pH 9), pH 9, 37 °C): 2.3 h | half-life at 4 μg/mL ([2]; buffer solution, pH 6.8, 37 °C): 6.5 h | half-life at 4 μg/mL ([2]; buffer solution, pH 7.4, 37 °C): 5.8 h | Undegraded Curcumin (%) 1 h ([2]; pH 3, 37 °C): 76% | Undegraded Curcumin (%) 5 h ([2]; pH 3, 37 °C): 55.7% | Undegraded Curcumin (%) 8 h ([2]; pH 3, 37 °C): 47.6% | degradation rate constant k ([2]; pH 3, 37 °C): 0.091 | Undegraded Curcumin (%) 1 h ([2]; pH 6.8, 37 °C): 76.4% | Undegraded Curcumin (%) 5 h ([2]; pH 6.8, 37 °C): 56.8% | Undegraded Curcumin (%) 8 h ([2]; pH 6.8, 37 °C): 43.7% | degradation rate constant k ([2]; pH 6.8, 37 °C): 0.107 | Undegraded Curcumin (%) 1 h ([2]; pH 7.4, 37 °C): 77% | Undegraded Curcumin (%) 5 h ([2]; pH 7.4, 37 °C): 52.7% | Undegraded Curcumin (%) 8 h ([2]; pH 7.4, 37 °C): 41.1% | degradation rate constant k ([2]; pH 7.4, 37 °C): 0.119 | Undegraded Curcumin (%) 1 h ([2]; pH 9, 37 °C): 61% | Undegraded Curcumin (%) 5 h ([2]; pH 9, 37 °C): 21% | Undegraded Curcumin (%) 8 h ([2]; pH 9, 37 °C): 8.6% | degradation rate constant k ([2]; pH 9, 37 °C): 0.301 | Apoptotic cells (%) [3]: 27.09% | Dead cells (%) [3]: 17.93% | Living cells (%) [3]: 43.47% | Papp at 18 h, 500 μM ([4]; pH 7.4, Permeability rate, Pe (Curcumin), PAMPA-BBB, read at 425 nm): 0.21 ×10⁻⁶ cm/s | Percentage of Degradation of curcumin, Day 3 [5]: 6.8% | Percentage of Degradation of curcumin, Day 10 [5]: 13.5% | Percentage of Degradation of curcumin, Day 18 [5]: 16.9% | Percentage of Degradation of curcumin, Day 26 [5]: 26% | Percentage of Degradation of curcumin, Day 30 [5]: 32.3% | Apoptotic cells (%) [6]: 35.64% | Dead cells (%) [6]: 14.33% | Living cells (%) [6]: 37.92% | Preapoptotic cells (%) [6]: 12.11% | Percentage of dead cells per V79-4 cell line (cytotoxic effect) ([7]; 1.875 μg/mL): 24.21% | Percentage of dead cells per V79-4 cell line (cytotoxic effect) ([7]; 3.75 μg/mL): 39.14% | Percentage of dead cells per V79-4 cell line (cytotoxic effect) ([7]; 7.5 μg/mL): 47.33% | Percentage of dead cells per V79-4 cell line (cytotoxic effect) ([7]; 15 μg/mL): 58.41% | IC50 ([7]; read-out: IC 50 μg/mL for CURC on the V79-4 Cell Line): 10.4 µg/mL (≈ 28.1 µM) | IC50 [7, 11]: 10.4 µg/mL (≈ 28.1 µM) | viability at 1.875 µg/mL [8]: 62.3% | viability at 3.75 µg/mL [8]: 55.8% | viability at 7.5 µg/mL [8]: 39.2% | viability at 15 µg/mL [8]: 37.4% | IC50 [8, 12]: 6.31 µg/mL (≈ 17.1 µM) | IC50 ([8]; read-out: IC50 for μg/mL for CURC on the C6 Cell Line): 6.31 µg/mL (≈ 17.1 µM) | Percentage of dead cells per C6 cell line (cytotoxic effect) ([8]; rat, 1.875 μg/mL): 37.66% | Percentage of dead cells per C6 cell line (cytotoxic effect) ([8]; rat, 3.75 μg/mL): 44.22% | Percentage of dead cells per C6 cell line (cytotoxic effect) ([8]; rat, 7.5 μg/mL): 60.84% | Percentage of dead cells per C6 cell line (cytotoxic effect) ([8]; rat, 15 μg/mL): 62.63% | viability at 48 h, 1.875 μg/mL [9]: 75.8% | viability at 48 h, 3.75 μg/mL [9]: 60.9% | viability at 48 h, 7.5 μg/mL [9]: 52.7% | viability at 48 h, 15 μg/mL [9]: 41.6%

Cn1nnc2c(C(N)=O)ncn2c1=O [TMZ, temozolomide]
Apoptotic cells (%) [3]: 24.86% | Dead cells (%) [3]: 15.17% | Living cells (%) [3]: 49.36% | Preapoptotic cells (%) [3]: 10.61% | Papp at 18 h, 500 μM ([4]; pH 7.4, PAMPA-BBB, read at 327 nm, read-out: Permeability rate, Pe (TMZ)): 0.76 ×10⁻⁶ cm/s | BBB permeability category ([4]; PAMPA-BBB, in words): low permeability | half-life [10]: 1.8 h | Apoptotic cells (%) [6]: 33.59% | Dead cells (%) [6]: 16.45% | Living cells (%) [6]: 40.08% | Preapoptotic cells (%) [6]: 9.88% | Percentage of dead cells per V79-4 cell line (cytotoxic effect) ([7]; 1.875 μg/mL): 24.16% | Percentage of dead cells per V79-4 cell line (cytotoxic effect) ([7]; 3.75 μg/mL): 33.05% | Percentage of dead cells per V79-4 cell line (cytotoxic effect) ([7]; 7.5 μg/mL): 39.64% | Percentage of dead cells per V79-4 cell line (cytotoxic effect) ([7]; 15 μg/mL): 45.53% | IC50 ([7]; read-out: IC50 μg/mL for TMZ on the V79-4 Cell Line): 16.8 µg/mL (≈ 86.7 µM) | IC50 [7, 11]: 16.8 µg/mL (≈ 86.7 µM) | Percentage of dead cells per C6 cell line (cytotoxic effect) ([8]; 1.875 μg/mL): 37.7% and 34.88% | Percentage of dead cells per C6 cell line (cytotoxic effect) ([8]; 3.75 μg/mL): 42.5% | Percentage of dead cells per C6 cell line (cytotoxic effect) ([8]; 7.5 μg/mL): 47.05% | Percentage of dead cells per C6 cell line (cytotoxic effect) ([8]; 15 μg/mL): 60.95% and 59.18% | viability at 1.875 µg/mL [8]: 62.3% | viability at 3.75 µg/mL [8]: 57.5% | viability at 7.5 µg/mL [8]: 53% | viability at 15 µg/mL [8]: 39% | IC50 ([8]; read-out: IC50 μg/mL for TMZ on the C6 Cell Line): 8.75 µg/mL (≈ 45.1 µM) | IC50 [8, 12]: 8.75 µg/mL (≈ 45.1 µM) | viability at 48 h, 1.875 μg/mL [9]: 75.8% | viability at 48 h, 3.75 μg/mL [9]: 67% | viability at 48 h, 7.5 μg/mL [9]: 60.4% | viability at 48 h, 15 μg/mL [9]: 54.5%
